Literature values, collected in patent US20240156808A1, “Compositions and methods to improve the therapeutic benefit of suboptimally chemical compounds and biological therapies including substituted camptothecins such as irinotecan and topotecan for the treatment of benign and neoplastic hyperproliferative disease conditions, infections, inflammatory and …” (Edison Oncology, priority 2021, published 2024).

Experiments:
[1] = molecular target: T1, CES2 (Homo sapiens, UniProt O00748); conditions: CES2 versus CES1
T1 sequence (O00748 27-559): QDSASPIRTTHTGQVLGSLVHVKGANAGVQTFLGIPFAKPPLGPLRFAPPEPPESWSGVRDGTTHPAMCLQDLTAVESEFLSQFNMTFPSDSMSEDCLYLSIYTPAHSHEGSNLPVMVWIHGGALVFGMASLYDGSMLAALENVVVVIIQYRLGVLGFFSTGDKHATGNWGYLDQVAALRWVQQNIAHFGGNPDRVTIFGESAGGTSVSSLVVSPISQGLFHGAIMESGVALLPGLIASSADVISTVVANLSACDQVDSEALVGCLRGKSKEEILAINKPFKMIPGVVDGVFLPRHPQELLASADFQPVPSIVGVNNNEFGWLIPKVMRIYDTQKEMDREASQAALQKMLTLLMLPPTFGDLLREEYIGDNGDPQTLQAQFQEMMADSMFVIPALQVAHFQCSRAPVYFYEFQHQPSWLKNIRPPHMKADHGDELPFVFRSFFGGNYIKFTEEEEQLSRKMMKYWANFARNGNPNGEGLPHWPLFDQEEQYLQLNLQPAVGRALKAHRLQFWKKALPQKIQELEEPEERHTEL

For `CCc1c2c(nc3ccc(OC(=O)N4CCC(N5CCCCC5)CC4)cc13)-c1cc3c(c(=O)n1C2)COC(=O)[C@]3(O)CC` [irinotecan, (S)-4,11-diethyl-3,4,12,14-tetrahydro-4-hydroxy-3,14-dioxo1H-pyrano[3′,4′:6,7]-indolizino[1,2-b]quinolin-9-yl-[1,4′bipiperidine]-1′-carboxylate], the “fraction of irinotecan hydrolyzed to SN-38” value (in the liver by CES1 and CES2, also in plasma by butyrylcholinesterase) is listed as 2-5% and the “affinity of CES2 for irinotecan relative to CES1” value [1] is listed as 12.5 fold.
For `CCc1c2c(nc3ccc(O)cc13)-c1cc3c(c(=O)n1C2)COC(=O)[C@]3(O)CC` [SN-38], the elimination half-life (SN-38) is listed as 6 to 32 h, the “time to peak plasma concentration” value (after infusion) is listed as “two” and the distribution half-life (in vivo) is listed as “about 8 minutes”.
